A short description of data set [1]: HMWP content by size-exclusion chromatography. Conditions: analogs 1–9 (pH 7.5 series); covalent dimers and polymers prior to fibril formation testing, SEC, % of total absorbance area at 215 nm. It counts as physicochemical. On the procedure:
The stability properties of the individual amylin analogs were assessed with respect to their propensity toward amyloid fibril formation. The relative amount of covalent dimers and polymers (HMWP) present prior to fibril formation testing was measured as a control for the potential inhibitory effect of HMWP on fibril formation propensity as reported elsewhere.[39]
Elution was performed under isocratic conditions with the following mobile phase prepared in Milli-Q water (Millipore A/S): 0.5 M NaCl, 10 mM sodium dihydrogen monohydrate, 5 mM ortho-phosphoric acid, 50% (v/v) 2-propanol. The amount of HMWP was determined as the absorbance area of the corresponding peaks given in percentage of the total absorbance area. The molar extinction coefficients of the molecules eluting in the HMWP fraction and the main peak was assumed to be equal.
(Size exclusion chromatography separates by hydrodynamic size, large species first.)

The target of a further data set is T1, hAMY3R (Homo sapiens, UniProt O60896+P30988).
T1 sequence (P30988 25-474): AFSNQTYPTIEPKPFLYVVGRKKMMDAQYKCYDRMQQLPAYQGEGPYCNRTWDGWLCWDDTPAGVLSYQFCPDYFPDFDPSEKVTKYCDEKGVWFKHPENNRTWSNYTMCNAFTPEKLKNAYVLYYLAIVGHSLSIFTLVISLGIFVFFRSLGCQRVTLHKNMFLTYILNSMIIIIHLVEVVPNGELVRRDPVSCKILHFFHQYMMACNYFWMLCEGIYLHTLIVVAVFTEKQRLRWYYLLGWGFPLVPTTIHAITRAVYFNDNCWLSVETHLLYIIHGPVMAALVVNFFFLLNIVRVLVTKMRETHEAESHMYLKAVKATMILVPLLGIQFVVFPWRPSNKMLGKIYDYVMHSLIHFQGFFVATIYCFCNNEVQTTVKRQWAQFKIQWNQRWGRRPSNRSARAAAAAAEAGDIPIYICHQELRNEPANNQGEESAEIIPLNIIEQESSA
T1 sequence (O60896 24-148 partner): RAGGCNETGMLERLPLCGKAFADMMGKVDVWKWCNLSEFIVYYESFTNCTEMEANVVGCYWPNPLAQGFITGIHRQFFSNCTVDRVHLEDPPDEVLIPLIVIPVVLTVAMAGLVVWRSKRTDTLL
Put plainly: cAMP-responsive element luciferase reporter assay, human AMY3R. The class given is cell-based. On the set-up: expressed in transfected cells. As to conditions: for EC50: luciferase (human receptor assay); for ratio hCTR/hAMY3R: ratio of luciferase EC50 values. A general note: A reporter such as luciferase makes a cellular process visible.

A further data set addresses T2, hCTR (Homo sapiens, UniProt P30988).
T2 sequence (P30988 25-474): T1 sequence (P30988 25-474)
Put plainly: cAMP-responsive element luciferase reporter assay, human CTR. It counts as cell-based. Conditions: luciferase (human receptor assay).

A short description of data set [2]: ThT assay: fibril formation propensity and peptide recovery. It counts as physicochemical. Conditions: for ThT, pH 7.5 lag-time: 250 μM peptide, 10 mM HEPES pH 7.5, 1 μM ThT, 37 °C, 960 rpm, 45 h, lowest of four replicas, average of experiments; for recovery: pH 7.5, residual dissolved peptide after 45 h of shaking, centrifugation and 0.22 μm filtration, HPLC, relative to amount before stress. On the procedure:
The stability properties of the individual amylin analogs were assessed with respect to their propensity toward fibril formation, expressed as the time until fibril formation (measured as Lag time) and loss of dissolved peptide (assessed as Peptide Recovery). […] Samples were prepared as described previously (using the same methodology and materials) for a novel amylin-based analog candidate compound.[7]
Briefly, each compound was dissolved in 10 mM of glycylglycine buffer (pH 4.0) or HEPES buffer (pH 7.5) to a concentration of 250 μM, followed by ThT stock solution to a final concentration of 1 μM. Each solution was aliquoted into a microtiter plate (200 μL/well) sealed with a transparent adhesive sheet. Mechanical stress was applied at 37 °C incubation (960 rpm, 1 mm amplitude) with 20 min fluorescence reading intervals for 45 h (filters: excitation 444 nm; emission 485 nm). Each peptide was tested in experiments consisting of four replicas (e.g., four wells on the same plate), and the lag time of each replica was determined by visual inspection of the fluorescence-versus-time plot. For wells where no fibril formation could be detected, the lag time was set longer than the test period (>45 h). The lag time of the peptide was set to the lowest lag time of the four replicates (conservative estimate). Some of the peptides were tested in more than one experiment, and the lag time results given in Tables 6 and 9 represent the average of these experiments. The ThT time course data given in Supporting Information represent the average and SEM of each experiment.[40] After analysis, wells representing individual replicas were pooled, and the residual soluble peptide was isolated using centrifugation (20,000 g/30 min at room temperature) followed by […] filtration. The amount of residual dissolved peptide was determined using an HPLC with a flow rate of 2 mL/min at 30 °C and 215/276 nm detection. A gradient combining eluent A (7.7% w/w acetonitrile, 200 mM Na2SO4, 20 mM NaH2PO4, 20 mM Na2HPO4, pH 7.2) and eluent B (65.5% w/w acetonitrile) was applied. The amount of residual dissolved peptide was reported on a relative scale (Peptide Recovery) to the amount of dissolved peptide prior to mechanical stress.

The nature of data set [3]: Solubility versus pH profile.
The mark [4] stands for this setting: Tables S12 and S14, read-out: hAMY3R pEC50 (converted).
Setting [5] is: BHK cells stably expressing hCTR+RAMP3 and CRE-luciferase, 3 h, 37 °C, 10% FBS, read-out: hAMY3R EC50.
The mark [6] stands for this setting: Tables S12 and S14, read-out: hCTR pEC50 (converted).
[7] abbreviates: BHK cells stably expressing hCTR and CRE-luciferase, 3 h, 37 °C, 10% FBS, read-out: hCTR EC50.

Molecules are shown by their SMILES. Converted amounts (≈) assume the structure as drawn. Read-outs that look alike come from different tables or passages of the source. Numbered stars: 1 amine (or outer) side, 2 acyl side, 3 side chain; on linkers, the order of the positions; unused ones are H or OH. Bridge positions count the residues as written; N and C are the ends. Side chains are listed from the residue outwards. Peptide text beside a SMILES is read from it. * marks the point of attachment. C20 diacid = O=C(O)CCCCCCCCCCCCCCCCCCC(=O)*; γGlu = O=C(O)[C@H](CCC(=O)[*:2])N[*:1]

`CC[C@H](C)[C@H](NC(=O)[C@H](C)NC(=O)CNC(=O)[C@H](Cc1ccccc1)NC(=O)[C@@H]1CCCN1C(=O)[C@H](CC(N)=O)NC(=O)[C@H](CO)NC(=O)[C@H](CO)NC(=O)[C@H](Cc1c[nH]cn1)NC(=O)[C@H](CCCNC(=N)N)NC(=O)[C@H](CC(C)C)NC(=O)[C@H](Cc1ccccc1)NC(=O)[C@H](CC(=O)O)NC(=O)[C@H](C)NC(=O)[C@H](CC(C)C)NC(=O)[C@H](CCCNC(=N)N)NC(=O)[C@H](CCC(N)=O)NC(=O)[C@@H](NC(=O)[C@H](C)NC(=O)[C@@H]1CSSC[C@H](NC(=O)[C@@H](N)CCCCNC(=O)CC[C@H](NC(=O)CC[C@H](NC(=O)CCCCCCCCCCCCCCCCCCC(=O)O)C(=O)O)C(=O)O)C(=O)N[C@@H](CC(N)=O)C(=O)N[C@@H]([C@@H](C)O)C(=O)N[C@@H](C)C(=O)N[C@@H]([C@@H](C)O)C(=O)N1)[C@@H](C)O)C(=O)N1CCC[C@H]1C(=O)N[C@@H](CO)C(=O)N[C@@H](CO)C(=O)N[C@H](C(=O)N[C@@H](CC(N)=O)C(=O)N[C@H](C(=O)NCC(=O)N[C@@H](CO)C(=O)N[C@@H](CC(=O)O)C(=O)N[C@H](C(=O)N[C@@H](Cc1ccc(O)cc1)C(N)=O)[C@@H](C)O)C(C)C)[C@@H](C)O` [Peptide 8] (H-K([γGlu-γGlu-C20 diacid])CNTATCATQRLADFLRHSSNPFGAIPSSTNVGSDTY-NH2; disulfide 2-7): the HMWP in data set [1] turned out to be 2.5%. Besides, the EC50 at hAMY3R (setting [4]) is 0.389 nM; at hAMY3R (setting [5]) it was 0.39 nM; at hCTR (setting [6]), 2.19 nM; on hCTR (setting [7]), 2.19 nM. Also, the “ratio hCTR/hAMY3R” value at hAMY3R turned out to be 5.6. Also, the “ThT, pH 7.5 lag-time” value in data set [2] is more than 45 h. The recovery in data set [2] amounted to 100%.

With `CC[C@H](C)[C@H](NC(=O)[C@@H]1CCCN1C(=O)CNC(=O)[C@H](Cc1ccccc1)NC(=O)[C@H](CC(N)=O)NC(=O)[C@H](CCC(=O)O)NC(=O)[C@H](CO)NC(=O)[C@H](CO)NC(=O)[C@H](Cc1c[nH]cn1)NC(=O)[C@H](CCCNC(=N)N)NC(=O)[C@H](CC(C)C)NC(=O)[C@H](Cc1ccccc1)NC(=O)[C@H](CC(=O)O)NC(=O)[C@H](C)NC(=O)[C@H](CC(C)C)NC(=O)[C@H](CCCNC(=N)N)NC(=O)[C@H](CCC(N)=O)NC(=O)[C@@H](NC(=O)[C@H](C)NC(=O)[C@@H]1CSSC[C@H](NC(=O)[C@@H](N)CCCCNC(=O)CC[C@H](NC(=O)CC[C@H](NC(=O)CCCCCCCCCCCCCCCCCCC(=O)O)C(=O)O)C(=O)O)C(=O)N[C@@H](CC(N)=O)C(=O)N[C@@H]([C@@H](C)O)C(=O)N[C@@H](C)C(=O)N[C@@H]([C@@H](C)O)C(=O)N1)[C@@H](C)O)C(=O)N[C@@H](CC(C)C)C(=O)N[C@@H](CO)C(=O)N[C@@H](CO)C(=O)N[C@H](C(=O)N1CCC[C@H]1C(=O)N[C@H](C(=O)NCC(=O)N[C@@H](CO)C(=O)N[C@@H](CC(=O)O)C(=O)N[C@H](C(=O)N[C@@H](Cc1ccc(O)cc1)C(N)=O)[C@@H](C)O)C(C)C)[C@@H](C)O` [Peptide 9] (H-K([γGlu-γGlu-C20 diacid])CNTATCATQRLADFLRHSSENFGPILSSTPVGSDTY-NH2; disulfide 2-7), the HMWP in data set [1] was determined as 6%. The EC50 on hAMY3R (setting [4]) was 1.07 nM; at hAMY3R (setting [5]) it was 1.06 nM; on hCTR (setting [6]) it was 8.32 nM; on hCTR (setting [7]), 8.31 nM. Besides, the “ratio hCTR/hAMY3R” value at hAMY3R is 7.8. Besides, the “ThT, pH 7.5 lag-time” value in data set [2] is more than 45 h. Besides, the recovery in data set [2] amounted to 100%.

Turning to `CC(C)C[C@H](NC(=O)[C@H](CCCNC(=N)N)NC(=O)[C@H](CCC(N)=O)NC(=O)[C@@H](NC(=O)[C@H](C)NC(=O)[C@@H]1CSSC[C@H](NC(=O)[C@@H](N)CCCCNC(=O)CC[C@H](NC(=O)CCCCCCCCCCCCCCCCCCC(=O)O)C(=O)O)C(=O)N[C@@H](CC(N)=O)C(=O)N[C@@H]([C@@H](C)O)C(=O)N[C@@H](C)C(=O)N[C@@H]([C@@H](C)O)C(=O)N1)[C@@H](C)O)C(=O)N[C@@H](C)C(=O)N[C@@H](CC(=O)O)C(=O)N[C@@H](Cc1ccccc1)C(=O)N[C@@H](CC(C)C)C(=O)N[C@@H](CCCNC(=N)N)C(=O)N[C@@H](Cc1c[nH]cn1)C(=O)N[C@@H](CO)C(=O)N[C@@H](CO)C(=O)N[C@@H](CCC(N)=O)C(=O)N[C@@H](CC(N)=O)C(=O)N[C@@H](Cc1ccccc1)C(=O)NCC(=O)N[C@@H](C)C(=O)N1CCC[C@H]1C(=O)N[C@@H](CC(C)C)C(=O)N[C@@H](CO)C(=O)N[C@@H](CO)C(=O)N[C@H](C(=O)N[C@@H](CC(N)=O)C(=O)N[C@H](C(=O)NCC(=O)N[C@@H](CO)C(=O)N1CCC[C@H]1C(=O)N[C@H](C(=O)N[C@@H](Cc1ccc(O)cc1)C(N)=O)[C@@H](C)O)C(C)C)[C@@H](C)O` [Peptide 2] (H-K([γGlu-C20 diacid])CNTATCATQRLADFLRHSSQNFGAPLSSTNVGSPTY-NH2; disulfide 2-7), the EC50 was 1.55 nM at hAMY3R (setting [4]), 1.54 nM at hAMY3R (setting [5]), 1.38 nM at hCTR (setting [6]) and 1.37 nM on hCTR (setting [7]). The “ratio hCTR/hAMY3R” value on hAMY3R is on record as 0.9. Further, the “ThT, pH 7.5 lag-time” value in data set [2] turned out to be 0 h. The recovery in data set [2] turned out to be 0%. The solubility (kinetic) – broadly, solubility judged after dilution from a stock solution rather than from solid – in data set [3] (bis-tris-propane buffer, pH 6, aqueous buffer) was not below 200 µM; in data set [3] (bis-tris-propane buffer, pH 6.5, aqueous buffer), 75 µM (≈ 330 µg/mL); in data set [3] (bis-tris-propane buffer, pH 7, aqueous buffer), 7 µM (≈ 30.8 µg/mL); in data set [3] (bis-tris-propane buffer, pH 7.5, aqueous buffer), 7 µM (≈ 30.8 µg/mL); in data set [3] (bis-tris-propane buffer, pH 8, aqueous buffer) it was 15 µM (≈ 65.9 µg/mL); in data set [3] (lactate buffer, pH 4, aqueous buffer) it was not below 200 µM. In data set [3] (lactate buffer, pH 5, aqueous buffer), the kinetic solubility was not below 200 µM.

The values above are taken from publication PMC11284788, “NN1213 – A Potent, Long-Acting, and Selective Analog of Human Amylin” (Journal of Medicinal Chemistry, 2024).
